Measurements as given in ChEMBL document CHEMBL2202954, “The effect of PLC-γ2 inhibitors on the growth of human tumour cells” (2012).

Columns and labels:
Format in all cases: functional
MDA-MB-468 = experiment: Cytotoxicity against human MDA-MB-468 cells assessed as cellular growth at 10 uM by SRB assay
HOP-62 = experiment: Cytotoxicity against human HOP62 cells assessed as cellular growth at 10 uM by SRB assay
786-0 = experiment: Cytotoxicity against human 786-0 cells assessed as cellular growth at 10 uM by SRB assay
RXF 393 = experiment: Cytotoxicity against human RXF393 cells assessed as cellular growth at 10 uM by SRB assay
NCI-H522 = experiment: Cytotoxicity against human NCI-H522 cells assessed as cellular growth at 10 uM by SRB assay
KM12 = experiment: Cytotoxicity against human KM12 cells assessed as cellular growth at 10 uM by SRB assay
HT-29 = experiment: Cytotoxicity against human HT-29 cells assessed as cellular growth at 10 uM by SRB assay
CAKI-1 = experiment: Cytotoxicity against human Caki1 cells assessed as cellular growth at 10 uM by SRB assay
NCI-H23 = experiment: Cytotoxicity against human NCI-H23 cells assessed as cellular growth at 10 uM by SRB assay
TK-10 = experiment: Cytotoxicity against human TK10 cells assessed as cellular growth at 10 uM by SRB assay
[1] = Cytotoxicity against human NCI-ADR-RES cells assessed as cellular growth at 10 uM by SRB assay
NCI-H322M = experiment: Cytotoxicity against human NCI-H322M cells assessed as cellular growth at 10 uM by SRB assay
PC-3 = experiment: Cytotoxicity against human PC3 cells assessed as cellular growth at 10 uM by SRB assay
UACC-62 = experiment: Cytotoxicity against human UACC62 cells assessed as cellular growth at 10 uM by SRB assay
SF-268 = experiment: Cytotoxicity against human SF268 cells assessed as cellular growth at 10 uM by SRB assay
HCC 2998 = experiment: Cytotoxicity against human HCC2998 cells assessed as cellular growth at 10 uM by SRB assay
MOLT-4 = experiment: Cytotoxicity against human MOLT4 cells assessed as cellular growth at 10 uM by SRB assay
HCT-15 = experiment: Cytotoxicity against human HCT15 cells assessed as cellular growth at 10 uM by SRB assay
SNB-19 = experiment: Cytotoxicity against human SNB19 cells assessed as cellular growth at 10 uM by SRB assay
Hs-578T = experiment: Cytotoxicity against human Hs578T cells assessed as cellular growth at 10 uM by SRB assay

| Structure (SMILES) | Activity (MDA-MB-468) [%] | Activity (HOP-62) [%] | Activity (786-0) [%] | Activity (RXF 393) [%] | Activity (NCI-H522) [%] | Activity (KM12) [%] | Activity (HT-29) [%] | Activity (CAKI-1) [%] | Activity (NCI-H23) [%] | Activity (TK-10) [%] | Activity [1] [%] | Activity (NCI-H322M) [%] | Activity (PC-3) [%] | Activity (UACC-62) [%] | Activity (SF-268) [%] | Activity (HCC 2998) [%] | Activity (MOLT-4) [%] | Activity (HCT-15) [%] | Activity (SNB-19) [%] | Activity (Hs-578T) [%] |
| --- | --- | --- | --- | --- | --- | --- | --- | --- | --- | --- | --- | --- | --- | --- | --- | --- | --- | --- | --- | --- |
| Clc1ccccc1Nc1nnc(-c2ccncc2)s1 | 110.42 | 117.96 | 80.21 | 107.3 | 98.62 | 107.17 | 105.3 | 90.5 | 102 | 110.92 | 101.59 | 93.72 | 97.24 | 95.3 | 104.7 | 106.44 | 93.42 | 112.25 | 99.81 | 94.94 |
| Nc1c(C(=O)NCc2ccccc2)sc2nc3c(cc12)C(=O)CCC3 | 116.37 | 115.1 | 110.1 | 122.76 | 109.84 | 106.46 | 116.55 | – | 106.63 | 115.8 | 100.02 | 123.15 | 106.49 | 115.69 | 112.13 | 107.63 | 119.87 | 105.31 | 117.75 | 122.77 |
| O=c1/c(=C/c2ccccc2)sc2nc(-c3ccc(Cl)cc3Cl)nn12 | 120.34 | 95.63 | 111.75 | 111.76 | 99.33 | 114.89 | – | 96.38 | 102.55 | 98.86 | 111.31 | 131.46 | 115.99 | 103 | 107.58 | 122.44 | – | 112.75 | 110.52 | 102.33 |
| COc1cc(/C=c2/sc3nc4ccccc4n3c2=O)cc(I)c1O | 71.12 | 101.47 | 97.48 | 116.35 | 99.27 | 80.63 | 104.58 | 79.77 | 94.22 | 116.5 | 92.89 | 109.21 | 95.27 | 79.91 | 99.48 | 106.16 | 78.31 | 91.48 | 108.08 | 107.68 |
| O=C1N=C(c2ccccc2)S/C1=C\c1ccc2c(c1)OCO2 | 98.71 | 94.43 | 100.46 | 115.74 | 105.96 | 92.95 | 101.51 | 101.66 | 114.7 | 110.48 | 107.06 | 108.21 | 85.65 | 91.01 | 95.75 | 118.49 | 109.24 | 101.73 | 98.6 | 94.3 |
| Cc1ccc(C(=O)/C=C2/Nc3ccc(C)cc3OC2=O)cc1 | 112.98 | 115.04 | 111.25 | 112.41 | 100.47 | 106.74 | 106.8 | 96.63 | 99.9 | 135.06 | 108.28 | 106.47 | 101.93 | 96.95 | 110.95 | 102.74 | 83.44 | 110.94 | 104.52 | 122.96 |
| Cc1ccc2c(c1)N/C(=C/C(=O)c1ccc(Cl)cc1)C(=O)O2 | 107.35 | 113.93 | 117.98 | 111.43 | 81.38 | 102.59 | 105.84 | 105.93 | 98.65 | 131.96 | 104 | 114.58 | 87.2 | 93.82 | 105.3 | 108.44 | 86.91 | 99.12 | 105.39 | 113.45 |
| Cc1ccc(C2=N/C(=C\c3ccccc3)C(=O)O2)cc1 | 99.59 | 108.81 | 103.22 | 130.71 | 95.94 | 108.78 | 107.8 | 101.22 | 101.26 | 112.19 | 107.34 | 114.1 | 104.18 | 101.68 | 98.83 | 99.84 | 91.17 | 100.23 | 103.53 | 96.01 |
